One assay has as its target T1, rhMBP (with Vitamin C) (Homo sapiens, UniProt P11226).
T1 construct: made in house; host or cells: CHO DG44 (dhfr-), neomycin/MTX-resistant clones; purified from culture supernatant on mannan-agarose
Description: Sugar inhibition of rhMBP (cultured with vitamin C) binding to mannan (ELISA). For orientation: ELISA stands for enzyme-linked immunosorbent assay.

In the next assay the target is T2, native hMBP (Homo sapiens, UniProt P11226).
T2 construct: samples of stepwise dilution of the native hMBP, rhMBP (cultured with vitamin C), rhMBP (cultured without vitamin C)
Description: Sugar inhibition of native hMBP binding to mannan (ELISA).

Assay [1] has as its target T3, rhMBP (without Vitamin C) (Homo sapiens, UniProt P11226).
T3 construct: made in house; host or cells: CHO DG44 (dhfr-), neomycin/MTX-resistant clones; purified from culture supernatant on mannan-agarose
As to the kind of experiment: Sugar inhibition of rhMBP (cultured without vitamin C) binding to mannan (ELISA).

The subject of assay [2] is Influenza A virus A/Ibaraki/l/90 (H3N2). As to the kind of experiment: Hemagglutination Inhibition (HI) activities. The format is cell-based. The note with it: for Minimum Protein Concentration for HI Activities: 16HAU virus, chicken erythrocytes.
Assay [3] concerns Influenza A virus A/Ibaraki/1/90. The format is cell-based. To be noted: 0.5 and 1 μg/ml, three days; FIG. 21.
Assay [4] in a line: Sugar binding activity of MBP on mannan-coated plates (ELISA). To be noted: Table 1. As for the experimental part: Microtiter Plates were treated with 100 μl of coating buffer (15 mM sodium carbonate, 35 mM sodium hydrogen carbonate, 0.05% sodium azide, pH 9.6) containing mannan (10 μg/ml:SIGMA) at 4° C. overnight. After each treatment step, the plates were washed three times with TBSNTC solution (TBS, 0.05% sodium azide, 0.05% TWEEN 20 (Registered Trade Mark), 5 mM calcium chloride). After completing the coating of the plates, the plates were treated and blocked with BLOCKACE™ blocking solution (Dainippon Pharmaceutical) at room temperature for one hour.
After washing them, samples of stepwise dilution of the native hMBP, rhMBP (cultured with vitamin C), rhMBP (cultured without vitamin C) having the concentration of 200, 100, 50, 25, 12.5, 6.25 ng/ml, combination samples of 200 ng/ml of each hMBP with EDTA added to be its concentration of 10 mM, and combination samples of 50 ng/ml of each hMBP with mannose added to be its concentration of 100 mM were prepared, thereafter, 100 μl of each of them were poured into each well and were incubated at 37° C. for one hour. […] After incubating them at room temperature for 30 minutes, 100 μl of 1M phosphoric acid were added thereto, and their absorbance were measured at 450 nm (Model 450 Microplate Reader; Bio-Rad). […]

In assay [5] the test system is HIV-1 (HIV-gp120, HIV-gp160). As to the kind of experiment: Binding of rhMBP to blotted viral structural proteins: HIV-1. To be noted: rhMBP 1.0 μg/ml; FIG. 20. As for the experimental part:
(§1) Binding activities on rhMBP to HIV-1, HBV and Influenza A virus were determined by electrophoresing the following viral structural proteins, transferring them to membranes, binding thereto rhMBP and detecting them with labeled antibody.
(§2) Necessary amounts of viral structural proteins for the electrophoresis were 0.25 μg of HIV-gp120 (HIVIIIB-gp120) (ADVANCED BIOTECHNOLOGIES INCORPORATED (ABI)), 0.25 μg of HIV-gp160 (HIVIIIB-gp160) (ABI), 10 μg of HBS (Hepatitis B Surface Antigen (HBsAg) (ABI), Subtype ad), Influenza A virus (IAV; presented by The Research Foundation For Osaka University Research Institute for Microbial Diseases), 5 μg of H1N1 Yamagata virion and 5 μg of H3N2 Beijin virion.
(§3) SDS-PAGE employed polyacrylamide gel having the concentration gradient of 4˜20%, and HIV-1 and HBS were electrophoresed under reducing condition. After the electrophoresis, they were transferred to Immobilon-P^SQ transfer membrane (Millipore) with NOVA BLOT™ electrophoretic transfer unit (Pharmacia) by using semi-dry electroblot buffer kit (Owl Scientific). After such transfer, they were blocked with BLOCKACE™ blocking solution (Dainippon Pharmaceutical) at room temperature for one hour. […]

For assay [6], the system named is Influenza A virus (H1N1 Yamagata virion, H3N2 Beijin virion). Description: Binding of rhMBP to blotted viral structural proteins: Influenza A virus. The note with it: rhMBP 1.0 μg/ml; FIG. 20. As for the experimental part:
as §1, §2, §3

Assay [7] relates to Influenza A virus A/Ibaraki/l/90. As to the kind of experiment: Neutralization activities (focus reduction on MDCK cells). The format is cell-based.
For assay [8], the system named is HBV (Hepatitis B Surface Antigen). Description: Binding of rhMBP to blotted viral structural proteins: HBV. The note with it: rhMBP 1.0 μg/ml; FIG. 20. As for the experimental part:
as §1, §2, §3

The next assay relates to guinea pig complement. As to the kind of experiment: Complement activation: hemolysis of mannan-sensitized sheep erythrocyte.
The mark [9] stands for this setting: rhMBP (with Vitamin C), mannan-coated microtiter plates, read-out: I 50: Sugar concentration to halve binding activities with mannan.
Where [10] appears, read: native hMBP, mannan-coated microtiter plates, read-out: I 50: Sugar concentration to halve binding activities with mannan.
Where [11] appears, read: rhMBP (without Vitamin C), mannan-coated microtiter plates, read-out: I 50: Sugar concentration to halve binding activities with mannan.

pIC50: −log10 of the molar value. Where two headings read alike, the source gives them in different places.

T1 sequence (P11226 21-248): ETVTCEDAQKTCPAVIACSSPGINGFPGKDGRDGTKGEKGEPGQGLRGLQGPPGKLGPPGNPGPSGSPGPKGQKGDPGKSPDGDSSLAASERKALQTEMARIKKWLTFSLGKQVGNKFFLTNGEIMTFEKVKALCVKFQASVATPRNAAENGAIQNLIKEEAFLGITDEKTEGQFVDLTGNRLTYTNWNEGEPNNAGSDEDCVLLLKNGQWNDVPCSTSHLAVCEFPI
T3 sequence (P11226 21-248): as above
T2 sequence (P11226 21-248): as above

In the case of `O=C[C@@H](O)[C@@H](O)[C@H](O)[C@H](O)CO` [D-Mannose], the pIC50 is 2.17 at rhMBP (with Vitamin C), 2.43 on native hMBP and 2.17 in assay [1].
For the compound `OC[C@H]1O[C@H](O[C@H]2[C@H](O)[C@@H](O)[C@H](O)O[C@@H]2CO)[C@H](O)[C@@H](O)[C@@H]1O` [Maltose], the pIC50 on rhMBP (with Vitamin C) (setting [9]) is 2.19; at native hMBP (setting [10]) it was 2.13; in [1] (setting [11]) it was 2.13.
For the compound `O=C[C@H](O)[C@@H](O)[C@@H](O)[C@H](O)CO` [Galactose], the pIC50 at rhMBP (with Vitamin C) is 1.53; at native hMBP, 1.62; in assay [1], 1.44.
Consider “rhMBP (without Vitamin C): rhMBP from CHO clone cultured in medium without vitamin C”, for which the “Minimum Protein Concentration for HI Activities” value (“Minimum Protein Concentration” below) in assay [2] came to 80 ng/mL.
Take `CC(=O)N[C@H]1C(O)O[C@H](CO)[C@H](O)[C@@H]1O` (stereo partly drawn) [N-Acetyl-D-Galactosamine]: the pIC50 (at rhMBP (with Vitamin C) (setting [9]); on native hMBP (setting [10]); in assay [1] (setting [11])) was less than 1.00 in each case.
For the compound “rhMBP (with Vitamin C): rhMBP from CHO clone cultured in medium with vitamin C added”, in [2], the “Minimum Protein Concentration” value is 80 ng/mL.
As for `C[C@H](O)[C@@H](O)[C@@H](O)[C@H](O)C=O` [L-Fucose], the pIC50 on rhMBP (with Vitamin C) (setting [9]) is 2.36; on native hMBP (setting [10]), 2.38; in assay [1] (setting [11]), 2.06.
On to “rhMBP: recombinant human Mannan-Binding Protein expressed from pNOW1-hMBP in dhfr- CHO cells, purified on mannan-agarose”, for which the “Viral growth inhibition (gross area of virus-infected focus)” value in assay [3] was “reduced focus area infected by influenza viruses concentration-dependently”. Also, the “Sugar binding specificities compared with native hMBP” value in assay [4] is “substantially identical to those by the native hMBP”. Moreover, in [5], the “Binding activities to HIV-1” value is “have binding activities”. For the same compound, the “Binding activities to Influenza A virus” value in assay [6] was “have binding activities”. Moreover, the “Hemagglutination Inhibition (HI) activities compared with native hMBP” value in [2] (Table 2 and FIG. 18) is recorded as “not inferior to that by native hMBP”. For the same compound, the “Neutralization activities on addition of mannose” value in assay [7] (100 mM mannose) is reported as “inhibited by addition of mannose”. Moreover, the “Neutralization activities for influenza virus (reduction rate of FFU)” value in assay [7] (FIG. 19, MDCK cells) was “had neutralization activities for influenza virus”. In addition, the “Binding activities to HBV” value in [8] was “have binding activities”. Further, the “Hemolysis of sensitized sheep erythrocyte (complement activation)” value with guinea pig complement (1, 10, 100 and 1000 ng/tube, FIG. 22) is recorded as “hemolyzed concentration-dependently sensitized sheep erythrocyte substantially like the native hMBP”. For the same compound, the “Complement activation on addition of mannose” value in the assay on guinea pig complement (mannose added) is “suppressed by an addition of mannose”.
In the case of `OC[C@H]1O[C@@H](O[C@H]2[C@H](O)[C@@H](O)C(O)O[C@@H]2CO)[C@H](O)[C@@H](O)[C@H]1O` (stereo partly shown) [Lactose], the pIC50 on rhMBP (with Vitamin C) (setting [9]) was 1.33; at native hMBP (setting [10]), 1.44; in [1] (setting [11]) it was 1.23.
Take `CC(=O)N[C@H]1C(O)O[C@H](CO)[C@@H](O)[C@@H]1O` (stereo partly drawn) [N-Acetyl-D-Glucosamine]: the pIC50 is 2.44 on rhMBP (with Vitamin C) (setting [9]), 2.57 on native hMBP (setting [10]) and 2.42 in assay [1] (setting [11]).
Taken in the same sequence, the figures for `CC(=O)N[C@@H]1C(O)O[C@H](CO)[C@@H](O)[C@@H]1O` (stereo partly drawn) [N-Acetyl-D-Mannosamine] were 2.16, 2.36 and 2.16.
Consider “native hMBP: natural Human Mannan-Binding Protein, used as comparator”, for which the “Minimum Protein Concentration” value in assay [2] was determined as 40 ng/mL.
In the case of `C[C@@H](O)[C@H](O)[C@H](O)[C@@H](O)C=O` [D-Fucose], the pIC50 on rhMBP (with Vitamin C) (setting [9]) was 1.41; on native hMBP (setting [10]) it was 1.47; in assay [1] (setting [11]), 1.06.
